Assay results reported in patent US9770469B2, “Methods of reprogramming renal cells” (Tel HaShomer Medical Research Infrastructure and Services …, priority 2009, dated 2017).

Columns and labels:
Oct4 OE HAK cells = assay: qRT-PCR of Oct4 over-expressing HAK cells with or without VPA; format: cell-based, human
human fetal kidney cells = assay: Flow cytometry of renal progenitor surface markers after VPA; format: cell-based; settings: 24 h 4 mM VPA, FACS
Method: (§1) Cell Treatment: Cells were treated for 24 hours with growth medium supplemented with 1, 2, or 4 mM VPA (Sigma) or with H2O for control sample. Otherwise, cells were treated for 24 hours with growth medium supplemented with the combination of 75 μM TSA (Sigma) and 250 μM 5-AZA (Sigma) or with 100% Ethanol and Acetic Acid (Acetic Acid: H2O 1:1) for control sample. […] 24 hours prior to harvesting VPA at a concentration of 4 mM was added to the cell culture.
(§2) Flow Cytometry: Cells were detached from culture plated with non-enzymatic cell dissociation solution (Sigma-Aldrich). Cells (1×10^5 in each reaction) were suspended in 50 μl of FACS buffer [0.5% BSA and 0.02% sodium azid in PBS (Sigma-Aldrich and Invitrogen, respectively)] and blocked with FcR Blocking Reagent (MiltenyiBiotec) and human serum (1:1) for 15 minutes. Cells were then incubated for 45 minutes with the following primary antibodies: CD24-PE, NCAM1-PE, (both from eBioscience), CD133-APC, PSA-NCAM (both from MiltenyiBiotec), FZD7-biotin, NTRK2 (both from R&D Systems) or a matching isotype control. Cells were washed with FACS buffer, and incubated for 30 minutes with a secondary antibody if needed: goat anti mouse Streptavidin-APC (BD) or goat anti mouse Alexa Fluor 647 (Invitrogen). Cell's labeling was detected using FACSCalibur (BD). Flow cytometry results were analyzed using FlowJo analysis software. Viable cells were gated by both their FSC/SSC profile and 7AAD (eBioscience) exclusion.

human adult kidney cells [1] = assay: as above; format: cell-based; settings: 24 h 4 mM VPA, FACS
Method: as §1, §2

adult kidney cells = assay: Methylation immunoprecipitation (MeDIP) of Six2 and Wt1 promoters; format: cell-based, human
Method: […] (MeDIP): 10 μg of sonicated genomic DNA (100-400 bp in length) was denatured, incubated 0/N at 4° C. with […] of anti-methyl cytosine antibody (Diagenode, Belgium), and subsequently with 60 μl of protein A fast flow beads (Upstate Biotechnologies) for 2 hours at 4° C. The beads were washed and incubated with digestion buffer (50 mM Tris-HCl pH 8.0, 10 mM EDTA, 0.5% SDS) and proteinase K for 3 hours and the DNA extracted by phenol-chloroform and EtOH precipitation. The samples were tested by quantitative RT PCR with the indicated primers at table 2. The sonicated DNA served as input.

human adult kidney cells [2] = assay: qRT-PCR gene expression after TSA/AzaC or VPA treatment; format: cell-based
Source text: Tissue Samples: human tissues samples were collected according to the Helsinki requirements. Human fetal kidney cells (HFK) were collected from elective abortions at fetal gestational age ranged from 15 to 19 weeks. Normal human adult kidney cell (HAK) samples were retrieved from borders of RCC tumors from partial nephrectomy patients. Establishment of Primary Cultures from Human Kidney Tissues: Collected tissues were minced in HBSS, soaked in IMDM Medium (Invitrogen) supplemented with 0.1% collagenase II (Invitrogen). The digested tissue was then gradually forced through a 100 μm, 70 μm and 50 μm cell strainer to achieve a single cell suspension, and cultured in growth medium supplemented with FBS 10%, L-Glutamin 1%, Pen-Strep 1% and growth factors: 50 ng/ml of bFGF, 50 ng/ml of EGF and 5 ng/ml of SCF (R&D systems). Cell Treatment: […] Otherwise, cells were treated for 24 hours with growth medium supplemented with the combination of 75 μM TSA (Sigma) and 250 μM 5-AZA (Sigma) or with 100% Ethanol and Acetic Acid (Acetic Acid: H2O 1:1) for control sample. […] 24 hours prior to harvesting VPA at a concentration of 4 mM was added to the cell culture. Quantitative Reverse Transcription-PCR: Total RNA from kidney tissue cultured cells was isolated using the TRIZOL reagent (Invitrogen) according to the manufacturer's protocols. cDNA synthesis was carried out using Verso kit (Thermo scientific) with Random primers. Quantitative RT PCR was performed using an ABI7900HT sequence detection system (Perkin-Elmer/Applied Biosystems) in the presence of SYBR green (SYBR green PCR kit; Qiagen). Each analysis reaction was performed in duplicates or triplicates. GapDH was used as an endogenous control throughout all experimental analyses. Analysis was performed using the −ΔΔCt method, which determines fold changes in gene expression relative to a comparator sample.

human adult kidney cells [3] = assay: as above; format: cell-based; settings: HAK cells, 24 h VPA, particularly in VPA-2 mM
HAK cells = assay: Culture passage with transient or constant VPA (qRT-PCR, morphology); format: cell-based, human; settings: for cell morphology: culture passage
Method: Quantitative Reverse Transcription-PCR: Total RNA from kidney tissue cultured cells was isolated using the TRIZOL reagent (Invitrogen) according to the manufacturer's protocols. cDNA synthesis was carried out using Verso kit (Thermo scientific) with Random primers. Quantitative RT PCR was performed using an ABI7900HT sequence detection system (Perkin-Elmer/Applied Biosystems) in the presence of SYBR green (SYBR green PCR kit; Qiagen). Each analysis reaction was performed in duplicates or triplicates. GapDH was used as an endogenous control throughout all experimental analyses. Analysis was performed using the −ΔΔCt method, which determines fold changes in gene expression relative to a comparator sample. Maintaining re-induction of Six2/Osr1 in cultured human kidney cells is potentially important if such cells were to be propagated in vitro for the purpose of cell therapy. The present inventors therefore determined whether Six2 and Osr1 are maintained upon tissue culture passage of adult cells. Two treatment protocols were employed; the first, 24-hour exposure to 4 mM VPA and the second constant exposure to VPA.

[4] = HAK cells, 24 h, TSA/AzaC or VPA 1-4 mM, vs untreated control
[5] = HAK cells, 24 h, TSA/AzaC or all VPA concentrations (1, 2, 4 mM)
[6] = P0 cells, transient 24-hour exposure to 4 mM VPA
[7] = later passages, transient 24-hour exposure to 4 mM VPA

## CCCC(CCC)C(=O)O [VPA, valproic acid]
Oct4 OE HAK cells
  Six2 expression, VPA exposure combined with Oct4 OE: higher Six2 expression pattern compared to each of the single manipulations
Human fetal kidney cells
  CD133 surface expression: milder changes
  NCAM surface expression levels: significant upregulation
  PSA-NCAM surface expression levels: significant upregulation
Human adult kidney cells [1]; especially in the adult kidney
  PSA-NCAM surface expression elevation: 5-10 fold
Human adult kidney cells [1]; adult kidney cells
  CD133 surface expression: milder changes
  NCAM surface expression levels: significant upregulation
Adult kidney cells; VPA treatment
  DNA methylation on Wt1 promoter: minimally effected
Adult kidney cells; with or without VPA
  DNA methylation at the Six2 promoter: DNA hypomethylation at the Six2 promoter loci regardless of VPA treatment
Human adult kidney cells [2]; HAK cells, 24 h, TSA 75 μM + 5-AZA 250 μM, or VPA 1, 2, 4 mM (dose-dependent), vs untreated control
  Six2 mRNA reinduction: five-fold
Human adult kidney cells [2]; HAK cells, 24 h, TSA/AzaC or VPA
  Vimentin mRNA expression change: mostly unchanged
Human adult kidney cells [2]; [4]
  Osr1 mRNA expression change (re-activation): upregulated in a dose-dependent manner
  Pax2 mRNA expression change (re-activation): mildly elevated
  Sall1 mRNA expression change (re-activation): upregulated in a dose-dependent manner
  Wt1 mRNA expression change (re-activation): reduced
Human adult kidney cells [2]; [5]
  Klf4 mRNA expression change: significantly up-regulated
  Nanog mRNA expression change: significantly up-regulated
Human adult kidney cells [2]; HAK cells, 24 h, TSA/AzaC, or VPA (effect at 2 mM, 4 mM)
  E-cadherin mRNA expression change: mildly elevated
Human adult kidney cells [2]; HAK cells, 24 h treatment
  Oct4 mRNA expression change: remained unchanged
Human adult kidney cells [2]; VPA-treated adult kidney cells
  Wnt4 mRNA levels: strong up-regulation
  β-catenin mRNA levels: elevation
Human adult kidney cells [3]
  Oct4 mRNA expression change: significantly up-regulated
HAK cells; [6]
  Osr1 gene levels: re-induced
  Six2 gene levels: re-induced
HAK cells; constant VPA exposure, P1-P3
  Osr1 gene levels upon culture passage: significant Six2 and Osr1 re-induction
  Six2 gene levels upon culture passage: significant Six2 and Osr1 re-induction
HAK cells; constant VPA exposure, P3 cells
  Six2 gene levels: even further up-regulated
HAK cells; constant VPA exposure
  cell morphology: epithelial-like cell morphology
HAK cells; [7]
  Osr1 gene levels: remained similar to controls
  Six2 gene levels: remained similar to controls
HAK cells; transient 24-hour VPA exposure
  cell morphology: fibroblastic morphology
